Test results: EP4005557A1, “METHOD FOR PREPARING NANOSYSTEMS” (Université de Genève, priority 2020, dated 2022)

How the values were obtained:
[1] = Contact angle measurement on a solid surface by sessile drop technique (wetting properties); format: physicochemical; conditions: Table 3, voriconazole series
Method: The contact angles of voriconazole alone, glucose, voriconazole micelle formulation and voriconazole liposome formulation on a solid surface were measured by sessile drop technique using Lorentzen and […], type 28 optical tensiometer. The purpose of measuring the contact angle is to determine the wetting properties of the formulation. Higher contact angles correspond to poor wetting whereas lower contact angle correspond to good wetting properties. Micelles and liposomes of itraconazole have been prepared according to the method described in example 1. The contact angles of itraconazole alone, glucose, itraconazole micelle formulation and itraconazole liposome formulation on a solid surface were measured by sessile drop technique using Lorentzen and […], type 28 optical tensiometer.

[2] = drug alone; no method described; cited from earlier work

## C[C@@H](c1ncncc1F)[C@](O)(Cn1cncn1)c1ccc(F)cc1F [Voriconazole]
[1]
  Contact angle: 68.2°
[2]
  Log P: 1.75
